Results taken from US20200360386A1, “Inhibitors of HSP90, PI3-Kinase, Proteasome, HDAC, and P97 Pathways for Selective Removal of Senescent Cells in the Treatment of Age Related Conditions” (Unity Biotechnology, Inc., priority 2017, published 2020).

Experiments:
Format in all cases: in vivo, mouse
[1] = test system: 3MR or INK-ATTAC mice exposed to cigarette smoke; experiment: Cigarette smoke induced COPD model, oxygen saturation by pulse oximeter; details: after two months of cigarette smoke exposure, compared with untreated controls; FIG. 6
Description: As a model for chronic obstructive pulmonary disease (COPD), mice were exposed to cigarette smoke. The effect of a senolytic agent on the mice exposed to smoke is assessed by senescent cell clearance, lung function, and histopathology.
The mice used in this study include the 3MR strain, described in US 2017/0027139 A1 and in Demaria et al., Dev Cell. 2014 Dec. 22; 31 (6): 722-733. The 3MR mouse has a transgene encoding thymidine kinase that converts the prodrug gancyclovir (GCV) to a compound that is lethal to cells. The enzyme in the transgene is placed under control of the p16 promoter, which causes it to be specifically expressed in senescent cells. Treatment of the mice with GCV eliminates senescent cells.
Other mice used in this study include the INK-ATTAC strain, described in US 2015/0296755 A1 and in Baker et al., Nature 2011 Nov. 2; 479 (7372):232-236. The INK-ATTAC mouse has a transgene encoding switchable caspase 8 under control of the p16 promoter. The caspase 8 can be activated by treating the mice with the switch compound AP20187, whereupon the caspase 8 directly induces apoptosis in senescent cells, eliminating them from the mouse.
To conduct the experiment, six-week-old 3MR (n=35) or INK-ATTAC (n=35) mice were chronically exposed to cigarette smoke generated from a Teague TE-10 system, an automatically-controlled cigarette smoking machine that produces a combination of side-stream and mainstream cigarette smoke in a chamber, which is transported to a collecting and mixing chamber where varying amounts of air is mixed with the smoke mixture. The COPD protocol was adapted from the COPD core facility at Johns Hopkins University (Rangasamy et al., 2004, J. Clin. Invest. 114:1248-1259; Yao et al., 2012, J. Clin. Invest. 122:2032-2045).
Mice received a total of 6 hours of cigarette smoke exposure per day, 5 days a week for 6 months. Each lighted cigarette (3R4F research cigarettes containing 10.9 mg of total particulate matter (TPM), 9.4 mg of tar, and 0.726 mg of nicotine, and 11.9 mg carbon monoxide per cigarette [University of Kentucky, Lexington, Ky.]) was puffed for 2 seconds and once every minute for a total of 8 puffs, with the flow rate of 1.05 L/min, to provide a standard puff of 35 cm^3. […] The smoke chamber atmosphere was monitored for total suspended particulates (80-120 mg/m3) and carbon monoxide (350 ppm). […]
After two months of cigarette smoke (CS) exposure, lung function was assessed by monitoring oxygen saturation using the MouseSTAT PhysioSuite™ pulse oximeter (Kent Scientific). […] Mice were monitored for 30 seconds and the average peripheral capillary oxygen saturation (SpO2) measurement over this duration was calculated.

[2] = test system: C57BL/6J mice, osteoarthritis induced by ACL surgery; experiment: Osteoarthritis model: anterior cruciate ligament surgery, intra-articular treatment
Description: The model was implemented as follows. C57BL/6J mice underwent surgery to cut the anterior cruciate ligament of one rear limb to induce osteoarthritis in the joint of that limb. During week 3 and week 4 post-surgery, the mice were treated with 5.8 μg of Nutlin-3A (n=7) per operated knee by intra-articular injection, q.o.d. for 2 weeks. At the end of 4 weeks post-surgery, joints of the mice were monitored for presence of senescent cells, assessed for function, monitored for markers of inflammation, and underwent histological assessment.
Two control groups of mice were included in the studies performed: one group comprising C57BL/6J or 3MR mice that had undergone a sham surgery (n=3) (i.e., surgical procedures followed except for cutting the ACL) and intra-articular injections of vehicle parallel to the GCV (gancyclovir) treated group; and one group comprising C57BL/6J or 3MR mice that had undergone an ACL surgery and received intra-articular injections of vehicle (n=5) parallel to the GCV-treated group. RNA from the operated joints of mice from the Nutlin-3A treated mice was analyzed for expression of SASP factors (mmp3, IL-6) and senescence markers (p16). qRT-PCR was performed to detect mRNA levels.
Function of the limbs was assessed 4 weeks post-surgery by a weight bearing test to determine which leg the mice favored. The mice were allowed to acclimate to the chamber on at least three occasions prior to taking measurements. Mice were maneuvered inside the chamber to stand with one hind paw on each scale. The weight that was placed on each hind limb was measured over a three second period. At least three separate measurements were made for each animal at each time point. The results were expressed as the percentage of the weight placed on the operated limb versus the contralateral unoperated limb.

[3] = test system: LDLR-/- mice fed a high fat diet; experiment: Atherosclerosis model: LDLR-/- mice on high fat diet, systemic treatment
Description: This example illustrates the testing of an MDM2 inhibitor in a mouse model for treatment of atherosclerosis. The test compounds are administered systemically rather than locally. The model is done in an LDLR−/− strain of mice, which are deficient in the receptor for low-density lipoprotein. The experiments described here can be adapted mutatis mutandis to test and develop other types of inhibitors for use in clinical therapy.
Two groups of LDLR−/− mice (10 weeks) are fed a high fat diet (HFD) (Harlan Teklad TD.88137) having 42% calories from fat, beginning at Week 0 and throughout the study. Two groups of LDLR−/− mice (10 weeks) are fed normal chow (−HFD). From weeks 0-2, one group of HFD mice and −HFD mice are treated with Nutlin-3A (25 mg/kg, intraperitoneally). One treatment cycle is 14 days treatment, 14 days off. Vehicle is administered to one group of HFD mice and one group of −HFD mice. At week 4 (timepoint 1), one group of mice are sacrificed and to assess presence of senescent cells in the plaques. For the some of the remaining mice, Nutlin-3A and vehicle administration is repeated from weeks 4-6. At week 8 (timepoint 2), the mice are sacrificed and to assess presence of senescent cells in the plaques. The remaining mice are treated with Nutlin-3A or vehicle from weeks 8-10. At week 12 (timepoint 3), the mice are sacrificed and to assess the level of plaque and the number of senescent cells in the plaques.
Plasma lipid levels were measured in LDLR−/− mice fed a HFD and treated with Nutlin-3A or vehicle at timepoint 1 as compared with mice fed a −HFD (n=3 per group). Plasma was collected mid-afternoon and analyzed for circulating lipids and lipoproteins.
At the end of timepoint 1, LDLR−/− mice fed a HFD and treated with Nutlin-3A or vehicle were sacrificed (n=3, all groups), and the aortic arches were dissected for RT-PCR analysis of SASP factors and senescent cell markers. Values were normalized to GAPDH and expressed as fold-change versus age-matched, vehicle-treated LDLR−/− mice on a normal diet.
At the end of timepoint 2, LDLR−/− mice fed a HFD and treated with Nutlin-3A or vehicle (n=3 for all groups) were sacrificed, and aortic arches were dissected for RT-PCR analysis of SASP factors and senescent cell markers. Values were normalized to GAPDH and expressed as fold-change versus age-matched, vehicle-treated LDLR−/− mice on a normal diet.
At the end of timepoint 3, LDLR−/− mice fed a HFD and treated with Nutlin-3A or vehicle (n=3 for all groups) were sacrificed, and aortas were dissected and stained with Sudan IV to detect the presence of lipid. Body composition of the mice was analyzed by MRI, and circulating blood cells were counted by Hemavet™.

Q: Nc1nc(O)c2ncn(COC(CO)CO)c2n1 [ganciclovir] was tested. Which “SpO2 levels (peripheral capillary oxygen saturation)” value (shortened to “SpO2 levels”) [1] did it give?
A: The value was “statistically significant increases”.

Q: Which “SpO2 levels” value [1] does the source give for CC[C@H](C(=O)N1CCCC[C@H]1C(=O)O[C@H](CCc1ccc(OC)c(OC)c1)c1cccc(OCC(=O)NCC(CNC(=O)COc2cccc([C@@H](CCc3ccc(OC)c(OC)c3)OC(=O)[C@@H]3CCCCN3C(=O)[C@@H](CC)c3cc(OC)c(OC)c(OC)c3)c2)CN(C)C)c1)c1cc(OC)c(OC)c(OC)c1 [AP2018] here?
A: The value was “statistically significant increases”.

Q: What does the source list for COc1ccc(C2=N[C@@H](c3ccc(Cl)cc3)[C@@H](c3ccc(Cl)cc3)N2C(=O)N2CCNC(=O)C2)c(OC(C)C)c1 [Nutlin-3A]?
A: expression of p16 in the joint tissue (qRT-PCR) ([2]; 5.8 μg per operated knee intra-articular q.o.d. for 2 weeks, 4 weeks post-surgery, FIG. 3A): reduced the expression back to below the level of the controls; expression of IL-6 in the joint tissue (qRT-PCR) ([2]; 5.8 μg per operated knee intra-articular q.o.d. for 2 weeks, 4 weeks post-surgery, FIG. 3B): reduced the expression back to below the level of the controls; expression of MMP13 in the joint tissue (qRT-PCR) ([2]; 5.8 μg per operated knee intra-articular q.o.d. for 2 weeks, 4 weeks post-surgery, FIG. 3C): reduced the expression back to below the level of the controls; weight bearing test: favoring of the unoperated hind limb over the operated hind limb ([2]; 4 weeks post-surgery, FIG. 4A): abrogated this effect; histopathology: destruction of the proteoglycan layer of the joint ([2]; FIGS. 4B-4D): completely abrogated this effect; SpO2 levels (peripheral capillary oxygen saturation) [1]: statistically significant increases; expression of SASP factors and senescent cell markers in aortic arch (RT-PCR): MMP3, MMP13, PAI1, p21, IGFBP2, IL-1A, IL-1B ([3]; 25 mg/kg intraperitoneally, timepoint 1 (week 4), after one treatment cycle): reduced expression of several SASP factors and senescent cell markers; expression of SASP factors and senescent cell markers in aortic arch (RT-PCR) ([3]; 25 mg/kg intraperitoneally, timepoint 2 (week 8), multiple treatment cycles): reduced expression of most markers; reduction of surface area covered by plaques in the descending aorta ([3]; 25 mg/kg intraperitoneally, timepoint 3 (week 12), Sudan IV staining, FIG. 7): about 45%; platelet and lymphocyte counts versus vehicle treated mice ([3]; timepoint 3 (week 12), Hemavet): equivalent; mass and body fat composition ([3]; timepoint 3 (week 12), MRI, mice fed the high fat diet): decreased mass and body fat composition

Q: For CC1(C)CCC(c2ccc(Cl)cc2)=C(CN2CCN(c3ccc(C(=O)NS(=O)(=O)c4ccc(N[C@H](CCN5CCOCC5)CSc5ccccc5)c(S(=O)(=O)C(F)(F)F)c4)cc3)CC2)C1 [ABT-263, Navitoclax], which “SpO2 levels” value [1] is on record?
A: The value was “statistically significant increases”.
